According to article PMC8747370, “Characterization of Two BAHD Acetyltransferases Highly Expressed in the Flowers of Jasminum sambac (L.) Aiton” (Plants, 2021):

Tests used:
6xHis-JsBEAT2 = test system: T1, 6xHis-JsBEAT2; assay: GC-MS of benzyl acetate formed, curve fit; format: biochemical, Jasminum sambac; conditions: 250 mM Tris-HCl pH 7.5, 25 mM MgCl2, 25 mM KCl, 10 mM β-mercaptoethanol, 30 °C, 1 h
T1 construct: full-length cDNA, N-terminal 6xHis tag (pQE30), E. coli M15, Ni-NTA purified
Description: GC-MS of benzyl acetate formed, curve fit on 6xHis-JsBEAT2

GST-JsBEAT1 = test system: T2, GST-JsBEAT1; assay: GC-MS of benzyl acetate formed, curve fit; format: biochemical, Jasminum sambac; conditions: 250 mM Tris-HCl pH 7.5, 25 mM MgCl2, 25 mM KCl, 10 mM β-mercaptoethanol, 30 °C, 1 h
T2 construct: tag kept
Description: GC-MS of benzyl acetate formed, curve fit on GST-JsBEAT1

Row | Km (6xHis-JsBEAT2; with benzyl alcohol (fixed concentration not restated)) | Km (GST-JsBEAT1; 300 μM benzyl alcohol (fixed)) | Km (6xHis-JsBEAT2; with acetyl-CoA (fixed concentration not restated)) | Km (GST-JsBEAT1; 300 μM acetyl-CoA (fixed)) | Compound
1 | 317 ± 31.7 µM | 546 ± 94.5 µM |  |  | CC(=O)SCCNC(=O)CCNC(=O)[C@H](O)C(C)(C)COP(=O)(O)OP(=O)(O)OC[C@H]1O[C@@H](n2cnc3c(N)ncnc32)[C@H](O)[C@@H]1OP(=O)(O)O [acetyl-CoA]
2 |  |  | 279 ± 26.5 µM | 447 ± 108 µM | OCc1ccccc1 [benzyl alcohol]
